According to patent US8569336B2, “Compounds for the treatment of inflammatory disorders” (priority 2008, dated 2013):
Where two headings read alike, the source gives them in different places.

Legend:
[1] = target: T1, purified catalytic domain of recombinant human TACE (rhTACEc) (Homo sapiens, UniProt P78536, N452Q/S266A); assay: TACE kinetic assay: cleavage of internally quenched peptide substrate TNF-FRET 2 (Ki); assay type: biochemical; conditions: TNF-FRET 2 substrate
T1 construct: 6xHis (C); made in house; host or cells: baculovirus/Hi5 insect cells
T1 sequence (P78536 215-477 S266A/N452Q): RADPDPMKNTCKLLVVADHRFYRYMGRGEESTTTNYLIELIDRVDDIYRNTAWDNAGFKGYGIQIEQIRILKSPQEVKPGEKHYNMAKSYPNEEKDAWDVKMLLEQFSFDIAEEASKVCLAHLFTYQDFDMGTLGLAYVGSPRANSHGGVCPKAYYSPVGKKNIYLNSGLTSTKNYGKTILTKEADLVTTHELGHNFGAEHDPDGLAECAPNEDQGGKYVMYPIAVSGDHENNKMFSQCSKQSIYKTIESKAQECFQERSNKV

[2] = tested on: TNF-α production from human whole blood; assay: Inhibition of TNF-α production from human whole blood (hWBA), LPS stimulated, ELISA; assay type: cell-based; conditions: Homo sapiens, TNF-α by ELISA, read-out: hWBA (IC50)
[3] = human whole blood diluted 1:1, LPS stimulated
[4] = 3.5 h, human whole blood diluted 1:1, LPS stimulated, 3.5 h
[5] = LPS-stimulated human whole blood

Structure (SMILES)	Ki ([1]; read-out: Ki) [nM]	IC50 [2, 3] [nM]	IC50 [2, 4] [nM]	IC50 [2, 5] [nM]	Ki ([1]; Ki) [nM]
O=C1NC(=O)[C@](CN2Cc3ccc(OCC4CC4)c(F)c3C2=O)(c2cc3cc4c(c(F)c3o2)C(=O)NC4)N1 [Compound 2493]	0.49	349			
COC(=O)[C@H](CCCCNC(=O)c1cc2cc([C@]3(CN4Cc5ccc(OC)cc5C4=O)NC(=O)NC3=O)oc2cc1F)NC(=O)CCCC[C@@H]1SCC2NC(=O)NC21 (stereo partly drawn) [Compound 1282]	0.48		407		
COc1ccc2c(c1F)C(=O)N(C[C@@]1(c3cc4cc(-c5c(C)n[nH]c5C)c(F)cc4o3)NC(=O)NC1=O)C2 [Compound 1183]	0.14			232	
COc1ccc2c(c1F)C(=O)N(C[C@@]1(c3cc4cc(C5(C)NC(=O)NC5=O)c(C)cc4o3)NC(=O)NC1=O)C2 (stereo partly drawn) [Compound 1306]	1.42			414	
COc1ccc2c(c1)C(=O)N(C[C@@]1(c3cc4ncc(C(N)=O)cc4o3)NC(=O)NC1=O)C2 [Compound 2459]		173			0.367
COc1ccc2c(c1F)C(=O)N(C[C@@]1(c3cc4cc(C)nc(C)c4o3)NC(=O)NC1=O)C2 [Compound 203]	0.0608			943	
CCN1CC=C(c2nc3cc([C@]4(CN5Cc6ccc(OC)c(F)c6C5=O)NC(=O)NC4=O)oc3cc2F)CC1 [Compound 1321]	0.64			184	
COc1ccc2c(c1)C(=O)N(C[C@@]1(c3cc4cc(C5CNC(=O)C5)ccc4o3)NC(=O)NC1=O)C2 (stereo partly drawn) [Compound 2215]			381		0.524
COc1ccc2c(c1)C(=O)N(C[C@@]1(c3cc4c(Cl)nc(N)nc4o3)NC(=O)NC1=O)C2 [Compound 2296]		≥ 10000			4.59
COc1ccc2c(c1)C(=O)N(C[C@@]1(c3ccc(-c4cnc(N5CCCC5)nc4)cc3)NC(=O)NC1=O)C2 [Compound 1503]	2.4			7090	
COc1ccc2c(c1F)C(=O)N(C[C@@]1(c3cc4nc(-c5ccnc(N6CCNCC6)c5)ccc4o3)NC(=O)NC1=O)C2 [Compound 1719]	0.24			148	
C#Cc1c(O)ccc2c1C(=O)N(C[C@@]1(c3cc4ncccc4o3)NC(=O)NC1=O)C2 [Compound 1737]	5.8			> 10000	
COc1ccc2c(c1F)C(=O)N(C[C@@]1(c3cc4nc(-c5cccc(C#N)c5)ccc4o3)NC(=O)NC1=O)C2 [Compound 1504]	0.4			579	
CCCN1CCC(c2nc3cc([C@]4(CN5Cc6ccc(OC)c(F)c6C5=O)NC(=O)NC4=O)oc3cc2F)CC1 [Compound 1324]				248	0.58
COc1ccc2c(c1F)C(=O)N(C[C@@]1(c3cc4nc(N5CCCC(C(N)=O)C5)ccc4o3)NC(=O)NC1=O)C2 (stereo partly drawn) [Compound 1517]	0.5			260	
COc1ccc2c(c1)C(=O)N(C[C@@]1(c3oc4cccnc4c3-c3ncccc3O)NC(=O)NC1=O)C2 [Compound 1940]	0.75			659	
COc1ccc2c(c1F)C(=O)N(C[C@@]1(c3cc4nc(N(CCN(C)C)c5cn[nH]c5)ccc4o3)NC(=O)NC1=O)C2 [Compound 1714]	0.85			271	

More lines, main results first:

Ki ([1]; read-out: Ki) [nM]	IC50 [2, 3] [nM]	IC50 [2, 4] [nM]	IC50 [2, 5] [nM]	Structure (SMILES)	Ki ([1]; Ki) [nM]
0.88		441		COc1ccc2c(c1)C(=O)N(C[C@@]1(c3cc4cc(C(=O)N(C)CCN(C)C)c(F)cc4o3)NC(=O)NC1=O)C2 [Compound 1275]	
0.13	339			COC(=O)c1ccc2oc([C@]3(CN4Cc5ccc(OC)cc5C4=O)NC(=O)NC3=O)cc2n1 [Compound 2463]	
0.403		1510		COc1ccc2c(c1)C(=O)N(C[C@@]1(c3cc4cc(-c5c(C)nn(C)c5C)ccc4o3)NC(=O)NC1=O)C2 [Compound 2213]	
1.32			4140	COc1ccc2c(c1)C(=O)N(C[C@@]1(c3cc4nc(Nc5cncc(F)c5)ccc4o3)NC(=O)NC1=O)C2 [Compound 1731]	
0.185	154			COc1ccc2c(c1)C(=O)N(C[C@@]1(c3cc4c(-c5cn[nH]c5)nccc4o3)NC(=O)NC1=O)C2 [Compound 2283]	
2.66			560	COc1ccc2c(c1)C(=O)N(C[C@@]1(c3cc4nc(NC5CCNCC5)ccc4o3)NC(=O)NC1=O)C2 [Compound 1723]	
0.9			2430	COc1ccc2c(c1)C(=O)N(C[C@@]1(c3cc4nc(C5CC5)ccc4o3)NC(=O)NC1=O)C2 [Compound 1508]	
53.5			> 10000	O=C1NC(=O)[C@](CN2Cc3ccc(O)c(I)c3C2=O)(c2cc3ncccc3o2)N1 [Compound 1736]	
0.115	367			COc1ccc2c(c1)C(=O)N(C[C@@]1(c3cc4nc(C(=O)NC5CC5)ccc4o3)NC(=O)NC1=O)C2 [Compound 2464]	
0.306		193		COc1ccc2c(c1)C(=O)N(C[C@@]1(c3cc4nc(N5CCNC(=O)C5)ccc4o3)NC(=O)NC1=O)C2 [Compound 2114]	
0.67			759	COc1ccc2c(c1)C(=O)N(C[C@@]1(c3cc4cnc(C#N)cc4o3)NC(=O)NC1=O)C2 [Compound 322]	
0.54			742	COc1ccc2c(c1)C(=O)N(C[C@@]1(c3cc4ncc(-c5ncc[nH]5)cc4o3)NC(=O)NC1=O)C2 [Compound 1943]	
0.488		713		COc1ccc2c(c1)C(=O)N(C[C@@]1(c3cc4cc(-c5ccc(N)nc5)ccc4o3)NC(=O)NC1=O)C2 [Compound 2202]	
1.14	504			COc1ccc2c(c1)C(=O)N(C[C@@]1(c3cc4c(C)nc(O)c(C(N)=O)c4o3)NC(=O)NC1=O)C2 [Compound 2435]	
0.54	554			CNC(=O)c1cnc(C)c2cc([C@]3(CN4Cc5ccc(OC)cc5C4=O)NC(=O)NC3=O)oc12 [Compound 2447]	
5.38	7110			COc1ccc2c(c1)C(=O)N(C[C@@]1(c3ccc(C(=O)NS(C)(=O)=O)cc3)NC(=O)NC1=O)C2 [Compound 2406]	
0.594			784	COc1ccc2c(c1)C(=O)N(C[C@@]1(c3cc4cc(C(N)C(F)(F)F)ccc4o3)NC(=O)NC1=O)C2 (stereo partly drawn) [Compound 311]	
0.635		460		COc1ccc2c(c1)C(=O)N(C[C@@]1(c3cc4nc(Nc5c(C)noc5C)ccc4o3)NC(=O)NC1=O)C2 [Compound 2133]	
0.69			728	COc1ccc2c(c1)C(=O)N(C[C@@]1(c3cc4nc(CO)ccc4o3)NC(=O)NC1=O)C2 [Compound 1945]	
0.59			609	COc1ccc2c(c1)C(=O)N(C[C@@]1(c3cc4ncc(CO)cc4o3)NC(=O)NC1=O)C2 [Compound 1941]	
0.637		1890		COc1ccc2c(c1)C(=O)N(C[C@@]1(c3cc4cc(-c5cnccc5OC)ccc4o3)NC(=O)NC1=O)C2 [Compound 2198]	
1.06	218			COc1ccc2c(c1)C(=O)N(C[C@@]1(c3cc4cnc(O)cc4o3)NC(=O)NC1=O)C2 [Compound 2312]	
0.577		210		COc1ccc2c(c1)C(=O)N(C[C@@]1(c3cc4nc(N5CCC(O)CC5)ccc4o3)NC(=O)NC1=O)C2 [Compound 2172]	
0.82			497	COc1ccc2c(c1)C(=O)N(C[C@@]1(c3cc4c(o3)CCN(S(C)(=O)=O)C4)NC(=O)NC1=O)C2 [Compound 316]	
0.806		828		COc1ccc2c(c1)C(=O)N(C[C@@]1(c3cc4nc(-c5ccc6nccn6c5)ccc4o3)NC(=O)NC1=O)C2 [Compound 2150]	
